Assay results published in patent US10793526B2, “Hydantoin derivative compounds, methods of use and methods of treatment” (University of South Florida, priority 2016, dated 2020).
≈ marks a conversion by molar mass, not a printed value.

Legend:
[1] = tested on: vancomycin-resistant Enterococcus faecalis (VREF, ATCC 700802); test: Minimum inhibitory concentration (MIC) assay, VREF; format: cell-based; details: Enterococcus faecalis, ATCC700802, Gram positive, 16 h incubation, read-out: MIC (μg/mL) VREF
[2] = tested on: E. coli (ATCC 25922); test: Minimum inhibitory concentration (MIC) assay, E. coli; format: cell-based, Escherichia coli; details: Escherichia coli, ATCC25922, Gram negative, 16 h incubation, read-out: MIC (μg/mL) E. coli
[3] = tested on: P. aeruginosa (ATCC 27853); test: Minimum inhibitory concentration (MIC) assay, P. aeruginosa; format: cell-based, Pseudomonas aeruginosa
[4] = tested on: K. pneumoniae (ATCC 13383); test: Minimum inhibitory concentration (MIC) assay, K. pneumoniae; format: cell-based, Klebsiella pneumoniae; details: Klebsiella pneumoniae, ATCC13383, Gram negative, 16 h incubation, read-out: MIC (μg/mL) K.P.
[5] = tested on: ovarian cancer cells (C13); test: Selectivity for mammalian cells, C13; format: cell-based; details: Homo sapiens, read-out: IC50 toward ovarian cancer cells (C13)
[6] = tested on: colon cancer cells (HCT116); test: Selectivity for mammalian cells, HCT116; format: cell-based; details: Homo sapiens, HCT-116; read-out: IC50 toward colon cancer cells (HCT116)
[7] = tested on: MRSA; test: Fluorescence microscopy (DAPI/PI) membrane damage, MRSA; format: cell-based, Staphylococcus aureus; details: 5 μg/mL, 2 h
[8] = tested on: E. coli; test: Fluorescence microscopy (DAPI/PI) membrane damage, E. coli; format: cell-based, Escherichia coli; details: 5 μg/mL, 2 h
Protocol: Fluorescence microscopy.^2
Both propidium iodide (PI) and 4′, 6′-diamidino-2-phenylindole dihydrochloride (DAPI) fluorescent dyes were used in the studies to determine the ability of the compound 22 to compromise the membranes of MRSA and E. coli, respectively. […] After centrifugation for 15 min at 5000 rpm, cell pellets were washed with 1×PBS buffer, and incubated with PI (5 μg/mL) for 15 min on ice in the dark, then washed 2 times with PBS. Then the cell pellets were incubated with DAPI (10 μg/mL) in the similar way. The pellets were then diluted in 100 μL PBS, and 10-20 μL of the suspension was applied on chamber slides and observed under Zeiss Axio Image Zloptical microscope using 100× oil-immersion objective.

[9] = tested on: MRSA; test: Time kill assay, MRSA; format: cell-based, Staphylococcus aureus
Protocol: (§1) Bacteria MRSA (Gram-positive) and E. coli (Gram-negative) suspensions were allowed to grow at 37° C. to the mid-logarithmic phase, and diluted to 1×10^6 CFU/mL, then incubated with the compound 22 at the concentration of 50, 25, 12.5 μg/mL at 10 min, 30 min, 1 h and 2 h, respectively. The resulted mixture was then diluted by 10^2 to 10^4 fold, from which 100 μL was spread on the TSB agar plate. The Number of bacteria colonies was counted after 20 h of incubation at 37° C.

[10] = tested on: E. coli; test: Time kill assay, E. coli; format: cell-based, Escherichia coli
Protocol: as §1, with “[…],” for “then incubated with the compound 22 at the concentration of 50, 25, 12.5 μg/mL at 10 min,”

[11] = tested on: MRSA; test: Drug resistance assay; format: cell-based, Staphylococcus aureus
Protocol: The lead compound 22 was chosen for drug resistance studies. Briefly, after its MIC against MRSA was determined, the bacteria solution from the well of the ½ MIC was withdrawn and diluted to 1×10^6 CFU/mL for the next MIC measurement. The measurement was repeated for 14 passages.

[12] = tested on: MRSA; test: Rat model of MRSA-induced pneumonia, bacterial count in lungs; format: in vivo; details: 10 mg/kg i.v.
Protocol: The rat model of MRSA-induced pneumonia.^4, 5
The protocol of animal studies was approved by the institutional committee for animal care of Nanjing University, and the experiments were conducted following the regulation of the National Ministry of Health of China. In Brief, male Wistar rats (6-8 weeks, ˜200 g in average weight) were subjected to fast for 12 h. Next, rats were anesthetized by intraperitoneal administration of 0.35 g/kg of chloral hydrate. To induce MRSA pneumonia, the trachea of rats were exposed, to which 100 μL PBS containing 2×10^6 CFU/mL MRSA in PBS was slowly injected. The rats were retained upright for 1 min, and the cut was sealed. The MRSA infection was allowed to develop for 24 h.
Bronchoalveolar lavage (BAL) assay.
The assay was carried out to quantify the bacteria in the lungs of rats. The thorax of rats was opened, and the lungs were collected in each group at different time points. Then the lungs were malleated and homogenized by a glass homogenizer, and diluted with PBS to the determined volume. After that, 10 μL solution was picked up, diluted with PBS by 100-fold, and daubed on the isolation medium. Bacteria were counted in each sample after incubation for 24 h at 37° C., from which the number of bacteria (colonies/g tissue) was calculated.

[13] = tested on: panel of Gram-positive and Gram-negative bacteria; test: Antimicrobial activity against the whole panel of bacteria; format: cell-based; details: all tested strains; read-out: MICs against all tested Gram-positive and Gram-negative strains
Protocol: Minimum inhibitory concentrations (MICs) assay.^2
All compounds were tested against six different bacteria strains: methicillin-resistant S. aureus (MRSA, ATCC 33591), E. coli (ATCC 25922), methicillin-resistant S. epidermidis (MRSE, RP62A), K. pneumoniae (ATCC 13383), vancomycin-resistant Enterococcus faecalis (VREF, ATCC 700802), P. aeruginosa (ATCC 27853). One colony of each bacteria was inoculated in 4 mL TSB buffer at 37° C. overnight, which was then diluted 100 times, and the bacteria were allowed to grow to the mid-logarithmic phase. 50 μL hydantoin compounds in 2-fold serial dilution of TSB were added in the 96-well plate, then 50 μL diluted bacterial in TSB medium (1×10^6 CFU/mL) was added to each well. After 16 h of incubation at 37° C., the absorption at 600 nm wavelength on a Biotek Synergy HT microtiter plate reader was recorded. Minimum inhibitory concentrations were determined as the lowest concentrations that inhibited bacteria growth completely.

CCCCCCCCCCCC(=O)N[C@@H](CCCCN)CN1CC(=O)N(c2cccc(Cl)c2)C1=O [Compound 22, (S)—N-(6-amino-1-(3-(3-chlorophenyl)-2,4-dioxoimidazolidin-1-yl)hexan-2-yl)dodecanamide]
MIC [1]: 0.5 µg/mL
MIC [2]: 1 µg/mL
MIC ([3]; Pseudomonas aeruginosa, ATCC27853, Gram negative, ATCC 27853, 16 h incubation, read-out: MIC (μg/mL) P.A.): 1 µg/mL
effectiveness toward P. aeruginosa compared with nitrofurantoin ([3]; ratio of MICs): at least 50 fold
MIC [4]: 0.78 µg/mL
IC50 [5]: 90 µg/mL (≈ 177 µM)
IC50 [6]: 100 µg/mL (≈ 197 µM)
membrane damage of MRSA (DAPI/PI staining) [7]: membranes of both MRSA and E. coli were damaged
membrane damage of E. coli (DAPI/PI staining) [8]: membranes of both MRSA and E. coli were damaged
time to completely eradicate MRSA ([9]; 2.0 μg/mL (4×MIC)): 60 min
time to completely eradicate MRSA ([9]; 25 μg/mL): 10 min
time to completely eradicate E. coli ([10]; 4.0 μg/mL (4×MIC)): 60 min
time to eradicate all E. coli ([10]; 25 μg/mL): 30 min
time to eradicate all E. coli ([10]; 50 μg/mL): 30 min
MIC against MRSA after 14 passages at half MIC [11]: virtually remain unchanged
reduction of bacteria compared with the control, day 5 [12]: 96%
MIC [13]: < 1 µg/mL
